According to US20180008587A1, “THIOHYDANTOIN ANDROGEN RECEPTOR ANTAGONISTS FOR THE TREATMENT OF CANCER” (Jaressen Pharmaceutica NV, priority 2016, published 2018):
Positions count from the first letter of the chain named. Where two headings read alike, the source gives them in different places.

Legend:
Assay type in all cases: cell-based
[1] = molecular target: T1, wild-type Androgen Receptor (AR-wt) (Homo sapiens, UniProt P10275); experiment: LNCaP-AR-wt ANT reporter assay (ARE firefly luciferase, antagonist mode); conditions: for IC50: antagonist mode, 400 pM R-1881 challenge, −Log10(IC50 [Molar]), read-out: LNCaP-AR-wt ANT pIC50 (converted); for Emax: read-out: LNCaP-AR-wt ANT MAX % Inh
T1 construct: expressed in transfected cells; host or cells: LNCaP (LNCaP AR (cs))
T1 sequence (P10275 1-920): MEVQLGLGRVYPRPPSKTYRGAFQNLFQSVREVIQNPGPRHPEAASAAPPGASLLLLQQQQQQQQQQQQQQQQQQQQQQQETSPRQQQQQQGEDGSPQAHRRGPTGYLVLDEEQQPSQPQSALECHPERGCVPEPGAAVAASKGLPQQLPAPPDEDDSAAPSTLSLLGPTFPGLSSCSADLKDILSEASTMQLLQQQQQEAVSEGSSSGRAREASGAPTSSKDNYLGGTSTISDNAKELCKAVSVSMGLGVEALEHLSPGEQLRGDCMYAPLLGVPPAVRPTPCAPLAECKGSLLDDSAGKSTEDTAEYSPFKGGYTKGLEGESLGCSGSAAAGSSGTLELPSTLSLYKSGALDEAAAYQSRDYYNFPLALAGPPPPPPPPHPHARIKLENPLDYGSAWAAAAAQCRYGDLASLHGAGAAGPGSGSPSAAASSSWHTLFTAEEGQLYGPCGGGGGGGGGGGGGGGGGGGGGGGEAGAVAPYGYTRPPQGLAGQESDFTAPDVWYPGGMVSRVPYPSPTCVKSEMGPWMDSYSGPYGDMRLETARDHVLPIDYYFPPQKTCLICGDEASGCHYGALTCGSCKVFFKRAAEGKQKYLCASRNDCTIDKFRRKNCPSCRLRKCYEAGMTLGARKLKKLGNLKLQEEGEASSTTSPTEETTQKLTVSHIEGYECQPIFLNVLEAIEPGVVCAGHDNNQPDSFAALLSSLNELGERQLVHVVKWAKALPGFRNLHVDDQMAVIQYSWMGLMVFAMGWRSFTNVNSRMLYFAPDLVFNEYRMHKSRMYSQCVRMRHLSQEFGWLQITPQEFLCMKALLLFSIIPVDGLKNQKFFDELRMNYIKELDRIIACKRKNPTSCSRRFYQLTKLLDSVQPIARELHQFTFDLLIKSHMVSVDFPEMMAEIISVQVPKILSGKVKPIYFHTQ
Protocol: (§1) A stable pooled-population cell line was generated using puromycin (Life Technologies) selection at 1:10,000 v/v. The protocol below was used for both cell lines and for testing of the compounds of Formula (I) of the present invention.
(§2) LNCaP cells were grown to about 80% confluence, media removed and cells rinsed in Hank's balanced salt solution prior to separation from the plate with 0.05% Trypsin EDTA. Cells were lifted and trypsin negated in complete CSS (charcoal stripped serum) culture media. […] Agonist challenge was at 400 pM for WT assay and 600 pM for F876L assay. Plates containing cells and compounds herein were incubated for a further 20-24 hours at 37° C., 5% CO2 before addition of 40 μL/well of Steady-Glo Luciferase Assay System Reagent (Promega# E2520). After 1 h, plates were read for luminescence on a BMG Pherastar.
(§3) EC/IC50 calculations were achieved utilizing calculated RLU data and data fitting macros. Data were fit using least-squares methods to the following formula: […]

[2] = molecular target: T1, wild-type Androgen Receptor (AR-wt); experiment: LNCaP-AR-wt AG reporter assay (ARE firefly luciferase, agonist mode); conditions: for Emax: read-out: LNCaP-AR-wt AG MAX % Stim
Protocol: as §1, §2, §3

[3] = molecular target: T2, F876L mutant Androgen Receptor (AR-F876L) (Homo sapiens, UniProt P10275, F877L); experiment: LNCaP-AR-F876L ANT reporter assay (ARE firefly luciferase, antagonist mode); conditions: for Emax: read-out: LNCaP-AR-F876L ANT MAX % Inh
T2 construct: expressed in transfected cells; host or cells: LNCaP (LNCaP F876L)
T2 sequence (P10275 1-920 F877L): T1 sequence (P10275 1-920) with F877L
Protocol: as §1, §2, §3

[4] = molecular target: T2, F876L mutant Androgen Receptor (AR-F876L); experiment: LNCaP-AR-F876L AG reporter assay (ARE firefly luciferase, agonist mode); conditions: for Emax: read-out: LNCaP-AR-F876L AG MAX % Stim
Protocol: as §1, §2, §3

[5] = maximum % inhibition of R1881 control response over tested concentration range
[6] = agonist mode, −Log10(EC50 [Molar]), read-out: LNCaP-AR-wt AG pEC50 (converted)
[7] = maximum % stimulation (agonist response) over tested concentration range
[8] = read-out: LNCaP-AR-F876L ANT pIC50 (converted)
[9] = agonist mode, −Log10(EC50 [Molar]), read-out: LNCaP-AR-F876L AG pEC50 (converted)

## Cc1cc(N2C(=O)C3(CCC3)N(c3ccc(C(=O)NCc4cccs4)c(F)c3)C2=S)cnc1C#N [Cpd 33, 4-[6-(6-cyano-5-methyl-3-pyridyl)-5-oxo-7-thioxo-6,8-diazaspiro[3.4]octan-8-yl]-2-fluoro-N-(2-thienylmethyl)benzamide]
[1]
  IC50: 1230 nM
[1]; [5]
  Emax: 99.6%
[2]; [6]
  EC50: > 15100 nM
[2]; [7]
  Emax: 0.3%
[3]; [5]
  Emax: 100%
[3]; [8]
  IC50: 490 nM
[4]; [9]
  EC50: > 15100 nM
[4]; [7]
  Emax: 0.3%

## Cc1ccc(N2C(=S)N(c3cnc(C#N)c(C(F)(F)F)c3)C(=O)C2(C)C)cc1 [Cpd 110, 5-[4,4-dimethyl-5-oxo-3-(p-tolyl)-2-thioxo-imidazolidin-1-yl]-3-(trifluoromethyl)pyridine-2-carbonitrile]
[1]
  IC50: 195 nM
[1]; [5]
  Emax: 100%
[2]; [6]
  EC50: > 15100 nM
[2]; [7]
  Emax: 1.3%
[3]; [5]
  Emax: 100%
[3]; [8]
  IC50: 145 nM
[4]; [9]
  EC50: > 15100 nM
[4]; [7]
  Emax: 2.6%

## N#Cc1ncc(N2C(=O)C3(CCC3)N(c3ccc(C(=O)Nc4ccccc4)c(F)c3)C2=S)cc1C(F)(F)F [Cpd 73, 4-[6-[6-cyano-5-(trifluoromethyl)-3-pyridyl]-5-oxo-7-thioxo-6,8-diazaspiro[3.4]octan-8-yl]-2-fluoro-N-phenyl-benzamide]
[1]
  IC50: 759 nM
[1]; [5]
  Emax: 99.5%
[2]; [6]
  EC50: > 15100 nM
[2]; [7]
  Emax: 1.9%
[3]; [5]
  Emax: 99.1%
[3]; [8]
  IC50: 417 nM
[4]; [9]
  EC50: > 15100 nM
[4]; [7]
  Emax: 0.6%

## Cc1cc(N2C(=O)C3(CCC3)N(c3ccc(Oc4ccncn4)cc3)C2=S)cnc1C#N [Cpd 62, 3-methyl-5-[5-oxo-8-(4-pyrimidin-4-yloxyphenyl)-7-thioxo-6,8-diazaspiro[3.4]octan-6-yl]pyridine-2-carbonitrile]
[1]
  IC50: 339 nM
  Emax: 98.8%
[2]
  EC50: > 15100 nM
  Emax: 0.8%
[3]
  IC50: 91.2 nM
  Emax: 99.7%
[4]
  EC50: > 15100 nM
  Emax: 0.4%

## Cc1cc(N2C(=O)C3(CCC3)N(c3ccc(-c4cncc(F)c4)cc3)C2=S)cnc1C#N [Cpd 104, 5-[8-[4-(5-fluoro-3-pyridyl)phenyl]-5-oxo-7-thioxo-6,8-diazaspiro[3.4]octan-6-yl]-3-methyl-pyridine-2-carbonitrile]
[1]
  IC50: 129 nM
[1]; [5]
  Emax: 99.7%
[2]; [6]
  EC50: > 15100 nM
[2]; [7]
  Emax: 2.7%
[3]; [5]
  Emax: 98.4%
[3]; [8]
  IC50: 12 nM
[4]; [9]
  EC50: > 15100 nM
[4]; [7]
  Emax: 2.2%

## N#Cc1ncc(N2C(=O)C3(CCC3)N(c3ccc(C(=O)NCCc4ccncc4)c(F)c3)C2=S)cc1C(F)(F)F [Cpd 14, 4-[6-[6-cyano-5-(trifluoromethyl)-3-pyridyl]-5-oxo-7-thioxo-6,8-diazaspiro[3.4]octan-8-yl]-2-fluoro-N-[2-(4-pyridyl)ethyl]benzamide]
[1]
  IC50: 87.1 nM
[1]; [5]
  Emax: 102%
[2]; [6]
  EC50: > 15100 nM
[2]; [7]
  Emax: 0%
[3]; [5]
  Emax: 99.7%
[3]; [8]
  IC50: 112 nM
[4]; [9]
  EC50: > 15100 nM
[4]; [7]
  Emax: -0.1%

## CNC(=O)c1ccc(N2C(=S)N(c3cnc(C#N)c(C(F)F)c3)C(=O)C23CCC3)cc1F [Cpd 39, 4-[6-[6-cyano-5-(difluoromethyl)-3-pyridyl]-5-oxo-7-thioxo-6,8-diazaspiro[3.4]octan-8-yl]-2-fluoro-N-methyl-benzamide]
[1]
  IC50: 1820 nM
[1]; [5]
  Emax: 97.2%
[2]; [6]
  EC50: > 15100 nM
[2]; [7]
  Emax: 0.2%
[3]; [5]
  Emax: 94.4%
[3]; [8]
  IC50: 1550 nM
[4]; [9]
  EC50: > 15100 nM
[4]; [7]
  Emax: 0.3%

## N#Cc1cccc(N2C(=S)N(c3cnc(C#N)c(C(F)(F)F)c3)C(=O)C23CCC3)c1 [Cpd 79, 5-[8-(3-cyanophenyl)-5-oxo-7-thioxo-6,8-diazaspiro[3.4]octan-6-yl]-3-(trifluoromethyl)pyridine-2-carbonitrile]
[1]
  IC50: 631 nM
[1]; [5]
  Emax: 101%
[2]; [6]
  EC50: > 15100 nM
[2]; [7]
  Emax: 1.6%
[3]; [5]
  Emax: 101%
[3]; [8]
  IC50: 331 nM
[4]; [9]
  EC50: > 15100 nM
[4]; [7]
  Emax: 0.5%

## N#Cc1ncc(N2C(=O)C3(CCC3)N(c3ccc(Oc4ncccn4)cc3)C2=S)cc1C(F)(F)F [Cpd 107, 5-[5-oxo-8-(4-pyrimidin-2-yloxyphenyl)-7-thioxo-6,8-diazaspiro[3.4]octan-6-yl]-3-(trifluoromethyl)pyridine-2-carbonitrile]
[1]
  IC50: 562 nM
[1]; [5]
  Emax: 89.1%
[2]; [6]
  EC50: > 15100 nM
[2]; [7]
  Emax: 2.1%
[3]; [5]
  Emax: 97.3%
[3]; [8]
  IC50: 162 nM
[4]; [9]
  EC50: > 15100 nM
[4]; [7]
  Emax: 2.4%

## Cc1cc(N2C(=O)C3(CCC3)N(c3ccc(-c4cccnc4C)cc3)C2=S)cnc1C#N [Cpd 119, 3-methyl-5-[8-[4-(2-methyl-3-pyridyl)phenyl]-5-oxo-7-thioxo-6,8-diazaspiro[3.4]octan-6-yl]pyridine-2-carbonitrile]
[1]
  IC50: 112 nM
[1]; [5]
  Emax: 97.7%
[2]; [6]
  EC50: > 15100 nM
[2]; [7]
  Emax: 2.2%
[3]; [5]
  Emax: 96%
[3]; [8]
  IC50: 158 nM
[4]; [9]
  EC50: > 15100 nM
[4]; [7]
  Emax: 3.9%

## CN(CCCNC(=O)c1ccc(N2C(=S)N(c3cnc(C#N)c(C(F)(F)F)c3)C(=O)C23CCC3)cc1F)C1CCCC1 [Cpd 64, 4-[6-[6-cyano-5-(trifluoromethyl)-3-pyridyl]-5-oxo-7-thioxo-6,8-diazaspiro[3.4]octan-8-yl]-N-[3-[cyclopentyl(methyl)amino]propyl]-2-fluoro-benzamide]
[1]
  IC50: 282 nM
[1]; [5]
  Emax: 98.9%
[2]; [6]
  EC50: > 15100 nM
[2]; [7]
  Emax: 1.2%
[3]; [5]
  Emax: 98.1%
[3]; [8]
  IC50: 174 nM
[4]; [9]
  EC50: > 15100 nM
[4]; [7]
  Emax: 0.7%
